Literature values, collected in PMC9516332 (Frontiers in Oncology, 2022).
Like-named read-outs stand apart in the source and are kept apart here.

Key:
Settings in all cases: cited from earlier work
[1] = target: panel of 255 wild-type kinases (Homo sapiens, UniProt Q9HC98)
[2] = target: panel of 255 wild-type kinases (Homo sapiens, UniProt Q05655)
[3] = target: panel of 255 wild-type kinases (Homo sapiens, UniProt P35916)
[4] = target: panel of 255 wild-type kinases (Homo sapiens, UniProt P21802)
[5] = target: T1, panel of 255 wild-type kinases (Homo sapiens, UniProt Q9UQB9)
T1 sequence (Q9UQB9 1-309): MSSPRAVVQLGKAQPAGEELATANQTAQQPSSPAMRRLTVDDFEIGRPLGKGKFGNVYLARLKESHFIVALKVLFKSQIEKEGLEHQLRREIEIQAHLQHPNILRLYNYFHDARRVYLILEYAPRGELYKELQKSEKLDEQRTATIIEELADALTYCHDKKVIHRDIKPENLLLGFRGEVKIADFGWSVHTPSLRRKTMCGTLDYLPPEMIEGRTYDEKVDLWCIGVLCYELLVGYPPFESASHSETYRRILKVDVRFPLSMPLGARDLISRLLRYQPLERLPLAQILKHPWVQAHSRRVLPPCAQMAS

[6] = target: panel of 255 wild-type kinases (Homo sapiens, UniProt Q86V86)
[7] = target: T2, panel of 255 wild-type kinases (Homo sapiens, UniProt P15735)
T2 sequence (P15735 1-406): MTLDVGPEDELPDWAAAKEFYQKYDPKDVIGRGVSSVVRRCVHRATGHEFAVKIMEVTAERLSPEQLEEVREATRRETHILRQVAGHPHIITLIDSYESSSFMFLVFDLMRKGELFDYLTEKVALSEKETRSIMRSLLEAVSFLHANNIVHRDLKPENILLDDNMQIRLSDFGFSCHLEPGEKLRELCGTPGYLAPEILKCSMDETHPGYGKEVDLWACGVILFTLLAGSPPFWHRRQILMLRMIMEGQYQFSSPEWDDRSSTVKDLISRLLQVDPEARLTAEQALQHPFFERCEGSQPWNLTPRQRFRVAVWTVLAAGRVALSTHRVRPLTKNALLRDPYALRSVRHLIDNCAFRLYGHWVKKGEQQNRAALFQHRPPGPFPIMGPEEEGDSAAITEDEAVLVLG

[8] = target: panel of 255 wild-type kinases (Homo sapiens, UniProt P78362)
[9] = target: panel of 255 wild-type kinases (Homo sapiens, UniProt P54764)
[10] = target: T3, panel of 255 wild-type kinases (Homo sapiens, UniProt P51817)
T3 sequence (P51817 1-358): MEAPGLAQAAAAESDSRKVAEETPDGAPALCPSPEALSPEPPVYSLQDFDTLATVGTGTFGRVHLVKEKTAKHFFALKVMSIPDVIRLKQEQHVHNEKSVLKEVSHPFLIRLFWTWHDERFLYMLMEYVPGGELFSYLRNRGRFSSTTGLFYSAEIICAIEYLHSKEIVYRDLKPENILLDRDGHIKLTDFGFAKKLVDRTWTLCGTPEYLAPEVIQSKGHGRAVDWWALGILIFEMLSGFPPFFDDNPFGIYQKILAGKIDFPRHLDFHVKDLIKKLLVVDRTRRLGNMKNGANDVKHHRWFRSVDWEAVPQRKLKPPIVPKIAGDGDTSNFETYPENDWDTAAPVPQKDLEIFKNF

[11] = target: panel of 255 wild-type kinases (Homo sapiens, UniProt P16234)
[12] = target: T4, panel of 255 wild-type kinases (Homo sapiens, UniProt O00141)
T4 sequence (O00141 1-431): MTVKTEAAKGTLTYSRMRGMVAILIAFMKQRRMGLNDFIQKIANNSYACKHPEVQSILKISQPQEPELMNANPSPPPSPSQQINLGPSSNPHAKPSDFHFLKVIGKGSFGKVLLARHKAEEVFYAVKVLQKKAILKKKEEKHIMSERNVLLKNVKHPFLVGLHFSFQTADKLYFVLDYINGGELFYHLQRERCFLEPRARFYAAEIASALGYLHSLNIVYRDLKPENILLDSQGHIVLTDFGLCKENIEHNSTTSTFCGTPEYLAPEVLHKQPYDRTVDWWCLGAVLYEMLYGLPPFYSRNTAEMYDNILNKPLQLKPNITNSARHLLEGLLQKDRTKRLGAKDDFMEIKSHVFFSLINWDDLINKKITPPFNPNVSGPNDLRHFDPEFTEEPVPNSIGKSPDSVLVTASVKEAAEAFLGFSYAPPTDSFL

[13] = NEK6, 1 µmol/L single concentration, ref DOI: 10.1158/1535-7163.MCT-18-0877
[14] = kinase PKCδ, 1 µmol/L single concentration, ref DOI: 10.1158/1535-7163.MCT-18-0877
[15] = kinase FLT4, 1 µmol/L single concentration, ref DOI: 10.1158/1535-7163.MCT-18-0877
[16] = kinase FGFR2, 1 µmol/L single concentration, ref DOI: 10.1158/1535-7163.MCT-18-0877
[17] = AurC kinase assay, 1 µmol/L single concentration, ref DOI: 10.1158/1535-7163.MCT-18-0877
[18] = kinase PIM3, 1 µmol/L single concentration, ref DOI: 10.1158/1535-7163.MCT-18-0877
[19] = kinase PHKG2, 1 µmol/L single concentration, ref DOI: 10.1158/1535-7163.MCT-18-0877
[20] = kinase SRPK2, 1 µmol/L single concentration, ref DOI: 10.1158/1535-7163.MCT-18-0877
[21] = kinase EPHA4, 1 µmol/L single concentration, ref DOI: 10.1158/1535-7163.MCT-18-0877
[22] = kinase PRKX, 1 µmol/L single concentration, ref DOI: 10.1158/1535-7163.MCT-18-0877
[23] = kinase PDGFRα, 1 µmol/L single concentration, ref DOI: 10.1158/1535-7163.MCT-18-0877
[24] = kinase SGK, 1 µmol/L single concentration, ref DOI: 10.1158/1535-7163.MCT-18-0877
[25] = NEK6, 1 µmol/L single concentration, ref DOI: 10.1371/journal.pone.0092146
[26] = kinase PKCδ, 1 µmol/L single concentration, ref DOI: 10.1371/journal.pone.0092146
[27] = kinase FLT4, 1 µmol/L single concentration, ref DOI: 10.1371/journal.pone.0092146
[28] = kinase FGFR2, 1 µmol/L single concentration, ref DOI: 10.1371/journal.pone.0092146
[29] = AurC kinase assay, 1 µmol/L single concentration, ref DOI: 10.1371/journal.pone.0092146
[30] = kinase PIM3, 1 µmol/L single concentration, ref DOI: 10.1371/journal.pone.0092146
[31] = kinase PHKG2, 1 µmol/L single concentration, ref DOI: 10.1371/journal.pone.0092146
[32] = kinase SRPK2, 1 µmol/L single concentration, ref DOI: 10.1371/journal.pone.0092146
[33] = kinase EPHA4, 1 µmol/L single concentration, ref DOI: 10.1371/journal.pone.0092146
[34] = kinase PRKX, 1 µmol/L single concentration, ref DOI: 10.1371/journal.pone.0092146
[35] = kinase PDGFRα, 1 µmol/L single concentration, ref DOI: 10.1371/journal.pone.0092146
[36] = kinase SGK, 1 µmol/L single concentration, ref DOI: 10.1371/journal.pone.0092146

| SMILES | %-inhibition, NEK6 [1, 13] [%] | %-inhibition at 1 µmol/L, PKCδ [2, 14] [%] | %-inhibition at 1 µmol/L, FLT4 [3, 15] [%] | %-inhibition at 1 µmol/L, FGFR2 [4, 16] [%] | %-inhibition AurC [5, 17] [%] | %-inhibition at 1 µmol/L, PIM3 [6, 18] [%] | %-inhibition at 1 µmol/L, PHKG2 [7, 19] [%] | %-inhibition at 1 µmol/L, SRPK2 [8, 20] [%] | %-inhibition at 1 µmol/L, EPHA4 [9, 21] [%] | %-inhibition at 1 µmol/L, PRKX [10, 22] [%] | %-inhibition at 1 µmol/L, PDGFRα [11, 23] [%] | %-inhibition at 1 µmol/L, SGK [12, 24] [%] | further results |
| --- | --- | --- | --- | --- | --- | --- | --- | --- | --- | --- | --- | --- | --- |
| CC#CC(=O)N1CCC[C@H]1c1nc(-c2ccc(C(=O)Nc3ccccn3)cc2)c2c(N)nccn12 [acalabrutinib] | -5.54 | -9 | 1.41 | -6 | 7 | -0.0376 | 0.00605 | 0.686 | -3 | -4.59 | 1.38 | -5 |  |
| CCc1cc2c(cc1N1CCC(N3CCOCC3)CC1)C(C)(C)c1[nH]c3cc(C#N)ccc3c1C2=O [alectinib] | 1.43 | 1.83 | 39 | 2 | 2.65 | 52 | 75 | 93 | 3 | 1.81 | 43 | 12 |  |
| COc1cc(N2CCC(N3CCN(C)CC3)CC2)ccc1Nc1ncc(Cl)c(Nc2ccccc2P(C)(C)=O)n1 [brigatinib] |  |  |  |  |  |  |  |  |  |  |  |  | %-inhibition, NEK6 [1]: 0.534%; %-inhibition at 1 µmol/L, PKCδ [2]: 34%; %-inhibition at 1 µmol/L, FLT4 [3]: 99%; %-inhibition at 1 µmol/L, FGFR2 [4]: 97%; %-inhibition AurC [5]: 44%; %-inhibition at 1 µmol/L, PIM3 [6]: 5.69%; %-inhibition at 1 µmol/L, PHKG2 [7]: 96%; %-inhibition at 1 µmol/L, SRPK2 [8]: 10%; %-inhibition at 1 µmol/L, EPHA4 [9]: 3%; %-inhibition at 1 µmol/L, PRKX [10]: 47%; %-inhibition at 1 µmol/L, PDGFRα [11]: 96%; %-inhibition at 1 µmol/L, SGK [12]: 4.76% |
| Cc1cc(Nc2ncc(Cl)c(Nc3ccccc3S(=O)(=O)C(C)C)n2)c(OC(C)C)cc1C1CCNCC1 [ceritinib] | 0.593 | 5 | 75 | 15 | 3.47 | -0.463 | 83 | 80 | 1.33 | 11 | 61 | 2 |  |
| O=C(c1ccc(F)c(F)c1Nc1ccc(I)cc1F)N1CC(O)([C@@H]2CCCCN2)C1 [cobimetinib] | 1.81 | -2.12 | -6 | -2.8 | -2.68 | -0.814 | 2.22 | 3 | 3 | 2.17 | 11 | -19 |  |
| C[C@@H](Oc1cc(-c2cnn(C3CCNCC3)c2)cnc1N)c1c(Cl)ccc(F)c1Cl [crizotinib] |  |  |  |  |  |  |  |  |  |  |  |  | %-inhibition, NEK6 [1, 25]: -2.72%; %-inhibition at 1 µmol/L, PKCδ [2, 26]: -1.14%; %-inhibition at 1 µmol/L, FLT4 [3, 27]: 48%; %-inhibition at 1 µmol/L, FGFR2 [4, 28]: 27%; %-inhibition AurC [5, 29]: 87%; %-inhibition at 1 µmol/L, PIM3 [6, 30]: -4%; %-inhibition at 1 µmol/L, PHKG2 [7, 31]: 10%; %-inhibition at 1 µmol/L, SRPK2 [8, 32]: -2.33%; %-inhibition at 1 µmol/L, EPHA4 [9, 33]: 58%; %-inhibition at 1 µmol/L, PRKX [10, 34]: -7%; %-inhibition at 1 µmol/L, PDGFRα [11, 35]: 49%; %-inhibition at 1 µmol/L, SGK [12, 36]: 1.46% |
| CC(C)(C)c1nc(-c2cccc(NS(=O)(=O)c3c(F)cccc3F)c2F)c(-c2ccnc(N)n2)s1 [dabrafenib] |  |  |  |  |  |  |  |  |  |  |  |  | %-inhibition, NEK6 [1, 25]: -3%; %-inhibition at 1 µmol/L, PKCδ [2, 26]: -6%; %-inhibition at 1 µmol/L, FLT4 [3, 27]: 85%; %-inhibition at 1 µmol/L, FGFR2 [4, 28]: 4%; %-inhibition AurC [5, 29]: 23%; %-inhibition at 1 µmol/L, PIM3 [6, 30]: 9%; %-inhibition at 1 µmol/L, PHKG2 [7, 31]: 2%; %-inhibition at 1 µmol/L, SRPK2 [8, 32]: 11%; %-inhibition at 1 µmol/L, EPHA4 [9, 33]: 12%; %-inhibition at 1 µmol/L, PRKX [10, 34]: -1.55%; %-inhibition at 1 µmol/L, PDGFRα [11, 35]: 63%; %-inhibition at 1 µmol/L, SGK [12, 36]: 4% |
| C=CC(=O)N1CCC[C@@H](n2nc(-c3ccc(Oc4ccccc4)cc3)c3c(N)ncnc32)C1 [ibrutinib] | 0.77 | 0.525 | 91 | 81 | 7 | -0.241 | 0.816 | 3 | 13 | 0.66 | 94 | -21 |  |
